Reference: patent US20230346772A1, “COMBINATION TREATMENTS FOR WALDENSTROM'S MACROGLOBULINEMIA” (X4 Pharmaceuticals, Inc., priority 2019, published 2023)
Like-named read-outs stand apart in the source and are kept apart here. One block for each compound: values may come before it.

Legend:
[1] = Solubility of X4P-001; assay type: physicochemical
[2] = Terminal half-life of X4P-001; conditions: in vivo
[3] = Phase 1/2 study in renal cell carcinoma, dose-limiting toxicities; assay type: in vivo, human
Experimental: Doses of mavorixafor up to 600 mg daily have been tested in other clinical trials. During a Phase 1/2 study in renal cell carcinoma, a 3-patient cohort received monotherapy with 600 mg mavorixafor with 2 DLTs reported. On review, one of these (hyperglycemia) occurred in a patient with undiagnosed diabetes mellitus and the other (acute kidney injury [AKI]) occurred in a patient with pre-existing renal dysfunction and other complicating factors. Six patients received the 600 mg mavorixafor dose together with axitinib. […] Patients with a high hemoglobin A1c (HbA1c) level or with renal dysfunction are excluded from this study for safety reasons.

[4] = test system: neutrophil; test: Pharmacodynamic response of neutrophil changes (ANC); parameters: species or system human; conditions: in vivo
Excerpt: This characteristic of mavorixafor, allows for intrapatient patient dose escalation and since the steady-state ANC response is achieved rapidly as doses are escalated, the 28-day treatment duration cycle is intended to ensure that steady-state changes in ANC counts are achieved at each dose level, thereby avoiding any potential carry-over effects of previous doses. In addition, any DLT events are attributed to the current dose regardless of duration, making it unlikely that an unsafe dose is selected based on the algorithm.

[5] = target: CXCR4 (Homo sapiens, UniProt P61073)
Experimental: Dose selection for the planned Phase 1b study is based on available safety data and PD of CXCR4 inhibition. […] An intrapatient dose escalation scheme is used in this study: patients will have a dose escalation in 200-mg increments to a maximum dose of 600 mg QD with the objective of achieving maximum white blood cell (WBC) mobilization.

[6] = test system: Waldenstrom's Macroglobulinemia; conditions: previously treated WM patients, cited from earlier work
[7] = test system: Waldenstrom's Macroglobulinemia; conditions: treatment-naive WM patients, cited from earlier work
[8] = test system: Waldenstrom's Macroglobulinemia; conditions: cited from earlier work
[9] = Food effect on absorption
[10] = test system: WBC count; conditions: similar across neutrophils, monocytes, lymphocytes including B cells; cited from earlier work
[11] = test system: CD19 B cells; conditions: patients with WHIM who had mutations in CXCR4; cited from earlier work

Sequence of CXCR4 (P61073 whole entry): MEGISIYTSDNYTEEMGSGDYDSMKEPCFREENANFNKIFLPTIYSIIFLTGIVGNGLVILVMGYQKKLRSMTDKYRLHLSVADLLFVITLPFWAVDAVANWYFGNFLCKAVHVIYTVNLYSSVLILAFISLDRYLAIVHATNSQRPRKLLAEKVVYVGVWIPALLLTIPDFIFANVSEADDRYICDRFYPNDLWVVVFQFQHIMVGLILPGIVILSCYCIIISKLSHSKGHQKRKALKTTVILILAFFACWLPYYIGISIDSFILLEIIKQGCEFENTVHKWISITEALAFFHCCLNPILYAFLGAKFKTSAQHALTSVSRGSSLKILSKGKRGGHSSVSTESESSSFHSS

solubility ([1]; aqueous buffer, pH range 3.0 to 8.0, read-out: Solubility): > 100 mg/mL
solubility ([1]; in water): only slightly soluble
half-life [2]: 12 to 24 h
pharmacological activity of the dose ([5]; 200 mg starting dose, prior clinical trials): pharmacologically active
SMILES: NCCCCN(Cc1nc2ccccc2[nH]1)[C@H]1CCCc2cccnc21 [X4P-001]
DLTs reported ([3]; 600 mg monotherapy, 3-patient cohort): 2
patients reporting DLTs ([3]; 600 mg together with axitinib, six patients): Two of these patients reported DLTs
pharmacodynamic response of neutrophil changes [4]: rapid, occurring within hours to days
tolerability of the dose ([5]; human, in vivo): well-tolerated

absorption when taken with food [9]: increased
SMILES: C=CC(=O)N1CCC[C@@H](n2nc(-c3ccc(Oc4ccccc4)cc3)c3c(N)ncnc32)C1 [ibrutinib, 1-[(3R)-3-[4-amino-3-(4-phenoxyphenyl)-1Hpyrazolo[3,4-d]pyrimidin-1-yl]-1-piperidinyl]-2-propen-1-one]
MR (major response) ([6]; All Patients): 78%
VGPR (very good partial response) ([6]; All Patients): 29%
MR (major response) ([6]; MYD88^L265P CXCR4^WHIM): 67%
VGPR (very good partial response) ([6]; MYD88^L265P CXCR4^WHIM): 10%
MR (major response) ([6]; MYD88^L265P CXCR4^WT): 97%
VGPR (very good partial response) ([6]; MYD88^L265P CXCR4^WT): 44%
MR (major response) ([7]; All Patients): 83%
VGPR (very good partial response) ([7]; All Patients): 20%
MR (major response) ([7]; MYD88^L265P CXCR4^WHIM): 71%
VGPR (very good partial response) ([7]; MYD88^L265P CXCR4^WHIM): 7%
MR (major response) ([7]; MYD88^L265P CXCR4^WT): 94%
VGPR (very good partial response) ([7]; MYD88^L265P CXCR4^WT): 31%
VGPR ([8]; patients with the MYD88^L265P CXCR4^WT mutations): 44.4%
VGPR ([8]; patients with the double mutations MYD88^L265P CXCR4^WHIM): 9.5%

SMILES: c1cc(CN2CCCNCCNCCCNCC2)ccc1CN1CCCNCCNCCCNCC1 [plerixafor]
maximum fold-increase in WBCs over baseline [10]: 3 fold
fold increase in CD19 B cells [11]: greater than 40 fold
